Test results reported in paper PMC9556824, “Design, synthesis and computational study of new benzofuran hybrids as dual PI3K/VEGFR2 inhibitors targeting cancer” (Scientific Reports, 2022).
Where “and” joins values, the source holds several entries; their conditions need not be identical. Equal values may be shown once. Read-outs that look alike come from different tables or passages of the source.

Legend:
[1] = tested on: Hepatocellular carcinoma (HePG2); test: Antitumor screening using MTT assay; assay type: cell-based, human; conditions: Homo sapiens
Source text: (§3) Hepatocellular carcinoma (HePG2), mammary gland breast cancer (MCF-7), epithelioid carcinoma cervix cancer (Hela), and human prostate cancer were included on the panel (PC3). […] The cell lines were obtained from the American Type Culture Collection (ATCC) through VACSERA, a Cairo-based holding firm for biological goods and vaccines.
(§4) The panel consisted of hepatocellular carcinoma (HePG2), mammary gland breast cancer (MCF-7), epithelioid carcinoma cervix cancer (Hela) and human prostate cancer (PC3). Human lung fibroblast (WI38) was used to assay the cytotoxicity effect on normal cell. The cell lines were obtained from ATCC via Holding company for biological products and vaccines (VACSERA), Cairo, Egypt. The cytotoxic activity was defined as the concentration of the compound that causes 50% growth inhibition compared with the growth of untreated cells.

[2] = In vitro cytotoxicity against human normal cell line (MTT); assay type: cell-based; conditions: human, WI38, read-out: Average of Relative viability of cells (%)
Source text: (§1) The anticancer agent's selectivity for cancer cells is a critical consideration for any researcher, as it can decrease the molecule's adverse effects on normal human cells.

[3] = tested on: human lung fibroblast (WI38); test: as above; assay type: cell-based; conditions: Homo sapiens, WI-38, human normal cell line WI38; mean ± SD, n = 3
Source text: as §1

Hela cells [4] = test: Cell cycle arrest analysis; assay type: cell-based, human
Protocol: So, compound 8 was assessed its activity on cell cycle distribution and induction of apoptosis in different phases of Hela cells.
(§2) Annexin V-FITC and PI apoptosis kit were used to detect apoptosis (eBioscience™, San Diego, CA, USA). On a six well plate, Mcf cells were plated at a density of 600,000 cells/ml. The cells were treated with compound 8 at […] after 24 h of incubation. The solvent control consisted of cells developed in medium containing an equivalent volume of DMSO. In accordance with the instructions supplied by the Annexin V-FITC and PI apoptosis kit, the cells were stained with an Annexin V-FITC conjugate and propidium iodide (PI) after 24 h. The percentage of apoptotic, necrotic, and alive cells was then calculated. By using a flow cytometer (NovoCyte, ACEA Biosciences Inc, San Diego, CA, US) and the NovoExpress 1.3.0 software (ACEA Biosciences Inc, San Diego, CA, US), the cells' released fluorescence was examined. Each point on the population plot ("dot plot") corresponds to a single event with a particular fluorescence signal in relation to the axes: Annexin V-FITC green fluorescence.
Researcher : Dr.Omar El-Khouly email : dr.kholy93@gmail.com mob. 01278084495
Assay : Cell Cycle Analysis
Kit used : ab139418_Propidium Iodide Flow Cytometry Kit/BD
Assay samples : Cell culture
code IC50 %G0-G1 %S %G2/M %Pre-G1 Comment
(also on this page, place not known: 0 20 40 60 % OE -G12 /Hela Cont. Hela DNA content %G0-G1 %S %G2/M %Pre-G1)
(1 picture or pasted object on this page, not shown here)

Hela cells [5] = test: Detection of apoptosis (Annexin V-FITC/PI); assay type: cell-based, human
Protocol: In Hela cells, compound 8 induced an early apoptotic effect with 1.79% at 24 h. Also, the enhanced late apoptotic induction with 14.11% by 83-fold compared to the Hela control cell (0.17%). On other hand, necrotic effect in Hela at 24 h was induced by compounds 8 with 8.81% compared to the control cells (1.15%).
as §2

[6] = tested on: HePG2, MCF-7, Hela, PC3 cell lines; test: Antitumor screening using MTT assay, statements across several cell lines; assay type: cell-based, human; conditions: Homo sapiens, PC-3; read-out: IC50 range against HePG and PC3 cell lines
Source text: as §3, §4

[7] = tested on: mammary gland breast cancer (MCF-7); test: Antitumor screening using MTT assay; conditions: Homo sapiens
Source text: as §3, §4

[8] = tested on: epithelioid carcinoma cervix cancer (Hela); test: Antitumor screening using MTT assay; conditions: Homo sapiens, HeLa
Source text: as §3, §4

[9] = tested on: human prostate cancer (PC3); test: Antitumor screening using MTT assay; conditions: Homo sapiens
Source text: as §3, §4

human PI3Kα = human PI3Kα (Homo sapiens, UniProt P42336); test: Human PI3Kα enzyme inhibition assay (ELISA)
Protocol: (§5) PI3Kα and VEGFR-2 activity were verified by enzyme-linked immunosorbent assay (ELISA) assay technique. […] Then, the mean absorbance of each group of standard and tested compounds was determined. The standard curve was drawn on log–log paper with the absorbance on the Y-axis and the standard concentration on the X-axis.

human VEGFR-2 = human VEGFR-2 (Homo sapiens, UniProt P35968); test: Human VEGFR-2 enzyme inhibition assay (ELISA)
Protocol: as §5

Hela = tested on: Hela; set-up: method as in PMID 25086915; conditions: read-out: IC50 against Hela; cited from earlier work
MCF-7 = tested on: MCF-7; set-up: method as in PMID 25086915; conditions: read-out: IC50 against MCF-7; cited from earlier work
VEGFR-2 = conditions: read-out: IC50 against VEGFR-2; cited from earlier work
[10] = MCF7, read-out: Average of Relative viability of cells (%)
[11] = read-out: Average of Relative viability of cells (%)

human VEGFR-2, sequence (P35968 20-1356): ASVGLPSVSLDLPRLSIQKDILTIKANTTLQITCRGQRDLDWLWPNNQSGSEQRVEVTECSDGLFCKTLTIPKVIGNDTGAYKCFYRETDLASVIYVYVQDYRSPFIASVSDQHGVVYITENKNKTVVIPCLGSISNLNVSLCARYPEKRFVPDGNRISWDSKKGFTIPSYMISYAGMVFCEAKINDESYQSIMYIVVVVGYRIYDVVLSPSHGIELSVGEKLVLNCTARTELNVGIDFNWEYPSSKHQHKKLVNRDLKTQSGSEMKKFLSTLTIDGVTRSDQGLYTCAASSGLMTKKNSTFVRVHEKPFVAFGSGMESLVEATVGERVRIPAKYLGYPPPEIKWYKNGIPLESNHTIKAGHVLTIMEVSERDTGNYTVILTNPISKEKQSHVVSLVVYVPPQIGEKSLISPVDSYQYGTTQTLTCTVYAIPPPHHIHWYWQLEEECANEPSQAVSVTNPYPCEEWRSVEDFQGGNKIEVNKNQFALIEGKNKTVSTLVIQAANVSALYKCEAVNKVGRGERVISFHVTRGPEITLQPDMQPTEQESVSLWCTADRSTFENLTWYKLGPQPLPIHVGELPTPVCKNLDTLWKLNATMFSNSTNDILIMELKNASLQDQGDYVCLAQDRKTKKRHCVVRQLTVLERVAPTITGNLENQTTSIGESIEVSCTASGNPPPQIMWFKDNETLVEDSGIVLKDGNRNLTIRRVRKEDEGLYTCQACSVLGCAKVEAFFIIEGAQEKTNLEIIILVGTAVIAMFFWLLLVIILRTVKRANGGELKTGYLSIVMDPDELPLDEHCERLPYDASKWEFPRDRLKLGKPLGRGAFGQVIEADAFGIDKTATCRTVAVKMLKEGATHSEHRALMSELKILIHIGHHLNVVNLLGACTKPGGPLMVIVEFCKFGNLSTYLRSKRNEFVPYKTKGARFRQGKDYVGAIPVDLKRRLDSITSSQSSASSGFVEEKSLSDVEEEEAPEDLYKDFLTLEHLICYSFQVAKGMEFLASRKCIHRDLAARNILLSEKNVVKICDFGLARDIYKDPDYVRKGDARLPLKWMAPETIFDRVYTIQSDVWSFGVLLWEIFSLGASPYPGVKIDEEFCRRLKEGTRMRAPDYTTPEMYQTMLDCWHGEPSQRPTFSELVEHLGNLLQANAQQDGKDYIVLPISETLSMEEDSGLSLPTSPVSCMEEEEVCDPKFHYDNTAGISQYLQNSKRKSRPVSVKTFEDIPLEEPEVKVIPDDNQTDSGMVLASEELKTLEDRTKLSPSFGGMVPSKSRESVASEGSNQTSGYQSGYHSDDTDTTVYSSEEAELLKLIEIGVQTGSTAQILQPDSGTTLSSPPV
human PI3Kα, sequence (P42336 whole entry): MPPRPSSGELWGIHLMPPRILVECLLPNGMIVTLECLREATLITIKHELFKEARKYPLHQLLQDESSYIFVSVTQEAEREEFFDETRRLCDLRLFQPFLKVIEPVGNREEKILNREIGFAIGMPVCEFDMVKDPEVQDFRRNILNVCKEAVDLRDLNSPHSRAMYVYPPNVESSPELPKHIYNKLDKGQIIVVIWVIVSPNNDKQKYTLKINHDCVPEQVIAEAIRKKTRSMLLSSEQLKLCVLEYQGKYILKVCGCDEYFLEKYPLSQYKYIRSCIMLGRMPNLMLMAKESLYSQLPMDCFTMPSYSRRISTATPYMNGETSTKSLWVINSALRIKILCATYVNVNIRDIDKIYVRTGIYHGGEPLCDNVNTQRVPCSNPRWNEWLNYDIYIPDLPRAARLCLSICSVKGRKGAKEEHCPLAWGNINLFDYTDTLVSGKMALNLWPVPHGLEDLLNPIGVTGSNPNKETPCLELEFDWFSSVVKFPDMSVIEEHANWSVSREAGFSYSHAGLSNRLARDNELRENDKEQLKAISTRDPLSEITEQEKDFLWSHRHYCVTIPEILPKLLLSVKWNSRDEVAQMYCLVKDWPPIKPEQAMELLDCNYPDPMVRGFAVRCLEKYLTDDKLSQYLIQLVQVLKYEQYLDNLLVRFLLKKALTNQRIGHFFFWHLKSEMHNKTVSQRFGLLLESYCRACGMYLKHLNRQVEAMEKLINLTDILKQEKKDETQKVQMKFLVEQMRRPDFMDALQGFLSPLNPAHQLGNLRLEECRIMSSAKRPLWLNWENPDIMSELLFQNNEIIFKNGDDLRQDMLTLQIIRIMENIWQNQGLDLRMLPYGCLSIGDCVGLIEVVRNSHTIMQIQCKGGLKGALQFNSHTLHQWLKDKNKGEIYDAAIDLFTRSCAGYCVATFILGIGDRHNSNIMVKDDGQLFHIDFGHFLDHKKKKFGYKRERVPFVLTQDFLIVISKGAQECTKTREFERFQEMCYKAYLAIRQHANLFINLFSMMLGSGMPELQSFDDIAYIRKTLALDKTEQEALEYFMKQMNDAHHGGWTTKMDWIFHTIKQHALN
human PI3Kα, sequence (P27986 whole entry partner): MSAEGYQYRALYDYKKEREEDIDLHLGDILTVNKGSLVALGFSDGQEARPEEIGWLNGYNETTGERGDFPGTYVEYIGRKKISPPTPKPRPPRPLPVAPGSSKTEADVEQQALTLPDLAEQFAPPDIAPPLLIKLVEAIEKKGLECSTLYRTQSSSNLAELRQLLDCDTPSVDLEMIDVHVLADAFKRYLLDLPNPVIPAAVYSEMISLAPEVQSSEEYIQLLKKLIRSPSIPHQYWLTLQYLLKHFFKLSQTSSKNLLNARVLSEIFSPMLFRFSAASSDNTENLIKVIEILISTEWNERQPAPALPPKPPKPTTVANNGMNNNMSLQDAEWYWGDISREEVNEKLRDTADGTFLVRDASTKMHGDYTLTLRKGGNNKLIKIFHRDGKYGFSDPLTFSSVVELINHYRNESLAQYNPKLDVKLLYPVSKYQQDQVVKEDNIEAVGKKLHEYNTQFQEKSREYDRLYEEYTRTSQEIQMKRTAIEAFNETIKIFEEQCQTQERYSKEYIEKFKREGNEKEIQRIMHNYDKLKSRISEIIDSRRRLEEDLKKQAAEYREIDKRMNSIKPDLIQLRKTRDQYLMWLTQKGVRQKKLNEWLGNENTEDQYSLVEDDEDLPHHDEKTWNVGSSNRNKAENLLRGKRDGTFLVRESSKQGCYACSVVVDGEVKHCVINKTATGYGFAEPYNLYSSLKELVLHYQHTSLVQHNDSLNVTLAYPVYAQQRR

In the case of `C/C(=N\NC(=S)Nc1ccc(Cl)cc1)c1cc2ccccc2o1` [Compound 8, (E)-2-(1-(benzofuran-2-yl)ethylidene)-N-(4-chlorophenyl)hydrazine-1-carbothioamide], the viability at 1.56 µM ([1]; Conc. 1.56 µM, read-out: Average of Relative viability of cells (%)) is reported as 99.5%, the viability at 3.125 µM ([1]; Conc. 3.125 µM, read-out: Average of Relative viability of cells (%)) is reported as 81.4% and the viability at 6.25 µM ([1]; Conc. 6.25 µM, read-out: Average of Relative viability of cells (%)) is reported as 67.3%. The viability at 12.5 µM ([1]; Conc. 12.5 µM, read-out: Average of Relative viability of cells (%)) was 24.9%, the viability at 25 µM ([1]; Conc. 25 µM, read-out: Average of Relative viability of cells (%)) was 29.1% and the viability at 50 µM ([1]; Conc. 50 µM, read-out: Average of Relative viability of cells (%)) was 20.8%. It also gave a viability at 100 µM ([1]; Conc. 100 µM, read-out: Average of Relative viability of cells (%)) of 13.2%, an IC50 ([1]; mean ± SD, n = 3, read-out: In-vitro cytotoxicity IC50 (µM) HePG2) of 9.73 ± 0.7 µM and a viability at 3.125 µM ([2]; WI38 human lung fibroblast cells (normal cell line), Conc. 3.125 µM) of 100%. It also gave a viability at 6.25 µM ([2]; WI38 human lung fibroblast cells (normal cell line), Conc. 6.25 µM) of 89.3%, a viability at 12.5 µM ([2]; WI38 human lung fibroblast cells (normal cell line), Conc. 12.5 µM) of 75.6% and a viability at 25 µM ([2]; WI38 human lung fibroblast cells (normal cell line), Conc. 25 µM) of 62.7%. The viability at 50 µM ([2]; WI38 human lung fibroblast cells (normal cell line), Conc. 50 µM) was 48.2%, the viability at 100 µM ([2]; WI38 human lung fibroblast cells (normal cell line), Conc. 100 µM) was 36.4% and the viability at 1.56 µM ([2]; WI38 normal lung fibroblast cells, Conc. 1.56 µM) was 100%. For the same compound, the IC50 [3] was 48.2 ± 2.8 µM, the “Cell cycle analysis comment” value (Hela cells [4]) was “Pre-G1 apoptosis and cell growth arrest at G1/S phase” and the “Cell cycle distribution (%) %G0–G1” value (Hela cells [4]) was 47.06%. The “Cell cycle distribution (%) %G2/M” value (Hela cells [4]) was 1.71%, the “Cell cycle distribution (%) %S” value (Hela cells [4]; 24 h) was 51.23% and the “Cell cycle distribution (%) %Pre-G1” value (Hela cells [4]; after 48 h exposure) was 24.71%. For the same compound, the “Cell cycle analysis comment” value (Hela cells [4]; listed as OE-G12) was “cell growth arrest@G1/S phase”, the late apoptotic induction (Hela cells [5]) was 14.11% and the early apoptotic effect (Hela cells [5]; 24 h) was 1.79%. The necrotic effect (Hela cells [5]; 24 h) was 8.81%, the “late apoptotic induction, fold compared to Hela control cell” value (Hela cells [5]; control 0.17%) was 83 fold and the IC50 [6] was 11 to 17 µM. It also gave a melting point of 207 to 209 °C, a viability at 1.56 µM [7, 10] of 99.1% and a viability at 3.125 µM [7, 10] of 79.8%. For the same compound, the viability at 6.25 µM [7, 10] was 65.7%, the viability at 12.5 µM [7, 10] was 42.9% and the viability at 25 µM [7, 10] was 28.3%. It also gave a viability at 50 µM [7, 10] of 21.2%, a viability at 100 µM [7, 10] of 13.7% and an IC50 ([7]; MCF7, read-out: In-vitro cytotoxicity IC50 (µM) MCF-7) of 11.6 ± 0.9 µM. It also gave a viability at 1.56 µM [8, 11] of 88.6%, a viability at 3.125 µM [8, 11] of 76.1% and a viability at 6.25 µM [8, 11] of 53.7%. For the same compound, the viability at 12.5 µM [8, 11] was 32.8%, the viability at 25 µM [8, 11] was 24.5% and the viability at 50 µM [8, 11] was 16%. The viability at 100 µM [8, 11] was 8.2%, the IC50 ([8]; read-out: In-vitro cytotoxicity IC50 (µM) Hela) was 7.94 ± 0.5 µM and the viability at 1.56 µM [9, 11] was 100%. The viability at 3.125 µM [9, 11] was 93.7%, the viability at 6.25 µM [9, 11] was 72.9% and the viability at 12.5 µM [9, 11] was 51.6%. It also gave a viability at 25 µM [9, 11] of 39.2%, a viability at 50 µM [9, 11] of 27.1% and a viability at 100 µM [9, 11] of 19.3%. It also gave an IC50 ([9]; read-out: In-vitro cytotoxicity IC50 (µM) PC3) of 17.5 ± 1.3 µM, an IC50 (human PI3Kα; PI3K-α IC50 ng/ml, supplement lab report) of 6.43 nM and an IC50 (human PI3Kα; PI3Kα enzymatic IC50 (nM), mean of triplicate) of 2.21 ± 0.11 nM. For the same compound, the PI3K-α %inh (human PI3Kα; conc 0.1 (unit not given)) was 22.1%, the PI3K-α %inh (human PI3Kα; conc 1 (unit not given)) was 42.7% and the PI3K-α %inh (human PI3Kα; conc 10 (unit not given)) was 67%. For the same compound, the PI3K-α %inh (human PI3Kα; conc 100 (unit not given)) was 80.7%, the IC50 (human VEGFR-2; VEGFR2 IC50 ng/ml, supplement lab report) was 250 nM and the IC50 (human VEGFR-2; VEGFR-2 enzymatic IC50 (nM), mean of triplicate) was 68 nM and 86 nM. The vegfr2 %inh (human VEGFR-2; conc 0.01 (unit not given)) was 28.7%, the vegfr2 %inh (human VEGFR-2; conc 0.1 (unit not given)) was 52.7% and the vegfr2 %inh (human VEGFR-2; conc 1 (unit not given)) was 75.3%. It also gave a vegfr2 %inh (human VEGFR-2; conc 10 (unit not given)) of 90.4%.

For `O=C(CN1CCN(c2nn3c(-c4ccccc4)nnc3c3ccccc23)CC1)Nc1ccc(F)cc1` [Compound VII], the IC50 (Hela) is given as 2000 nM and the IC50 (MCF-7) is given as 3.4 µM.

In the case of `COc1c(C(=O)/C=C/c2ccc([N+](=O)[O-])cc2)c(O)cc2occc12` [Compound V], the IC50 (VEGFR-2) is given as 1 nM.
